Our source for the AUC/Dose values is US20230120597A1, “CO-AGONISTS AT GLP-1 AND GIP RECEPTORS SUITABLE FOR ORAL DELIVERY” (Novo Nordisk A/S, priority 2020, published 2023).

A short description of this series: Pharmacokinetic study in dogs, oral dosing of tablet compositions with SNAC. In kind it is in vivo, Beagle dogs. The following applies: dog, in vivo, po. How it is done: The purpose of this example is to determine the half-life and plasma exposure in vivo of the compounds of the present invention after p.o. administration to beagle dogs, i.e. the terminal half-life and concentration of test substance that reaches circulation with time. This is done in a pharmacokinetic (PK) study, where these parameters of the compound in question are determined. By terminal half-life is generally meant the period of time it takes to halve a certain plasma concentration, measured after the initial distribution phase.
The amount of SNAC in the tablet composition was 100-300 mg, the amount of magnesium stearate in the tablet composition was 7.7 mg, and the target amount of each test substance in the tablet composition was 3-4 mg.
Male beagle dogs, 1-7 years of age and weighing 9-17 kg during the study period, were included in the study. The dogs were dosed in a fasting state. The dogs were group housed in pens (12 hours light: 12 hours dark), and fed individually and restrictedly once daily with Royal Canin Medium Adult dog food (Royal Canin Products, China Branch, or Brogaarden A/S, Denmark). The dogs were used for repeated PK studies with a suitable wash-out period between successive dosing. An appropriate acclimatization period was given prior to initiation of the first PK study. All handling, dosing, and blood sampling of the animals were performed by trained and skilled staff. Before the studies, the dogs were fasted overnight and from 0 to 4 hours after dosing. The dogs were restricted to water 1 hour before dosing until 4 hours after dosing, but otherwise had ad libitum access to water during the whole period.
The compositions were administered by a single oral dosing to the dogs in groups of 6-8 dogs. […] The mouth was then closed, and 10 mL of tap water was given by syringe or gavage to facilitate swallowing of the tablet.
One blood sample was drawn before dosing, and additional samples were drawn at predefined time points after dosing for up to 240 hours, such as up to 10 hours, to adequately cover the full plasma concentration-time absorption profile of the test substance. For each blood sample time point, approximately 0.8 mL of whole blood was collected in a 1.5 mL EDTA-coated tube, which was gently turned to mix the sample with EDTA. Blood samples were collected in EDTA buffer (8 mM) and then centrifuged at 4° C. 2000 g for 10 minutes. Plasma was pipetted into Micronic tubes on dry ice, and kept at −20° C. or lower until analysis. Blood samples were taken as appropriate, for example from a venflon in the cephalic vein in the front leg for the first 2 hours and then with syringe from the jugular vein for the rest of the time points. The first few drops were allowed to drain from the venflon to avoid heparin saline from the venflon in the sample.
All blood samples were collected into test tubes containing EDTA for stabilisation and kept on ice until centrifugation. Plasma was separated from whole blood by centrifugation and the plasma was stored at −20° C. or lower until analysis.
The plasma was analysed for test substance using LC-MS (Liquid Chromatography-Mass Spectrometry) as known to the person skilled in the art. […] RP-HPLC separation was achieved using a linear gradient of 1:1 acetonitrile/methanol in 1% aqueous formic acid using either: a Phenomenex Onyx Monolithic C18 column (50×2.0 mm) and a flow rate of 0.8 mL/min at 30° C.; or an Agilent Poroshell 120 SB-C18 column (50×2.1 mm, 2.7 μm) at a flow rate of 0.4 mL/min at 60° C. The mass spectrometer was operated in either positive ionization SIM mode or positive ionization PRM mode.
For each individual animal, a plasma concentration-time profile was analysed by a non-compartmental model in Pharsight Phoenix WinNonLin ver.

Marks after values point to notes of the source that are not given here. Starred links: 1 amine or outer side, 2 acyl side, 3 side chain; linkers in the order of their positions; H or OH if unused. Non-standard residues stand in square brackets, D forms with d. Residues, ends and D or L forms follow the SMILES beside them. Groups on a side chain read outwards from the residue. *: point of attachment. C18 diacid = O=C(O)CCCCCCCCCCCCCCCCC(=O)*; γGlu = O=C(O)[C@H](CCC(=O)[*:2])N[*:1]; εLys = N[C@@H](CCCCN[*:1])C(=O)[*:2]; AEEA = NCCOCCOCC(=O)O; Aib = CC(C)(N)C(=O)O

For the molecule `CC[C@H](C)[C@H](NC(=O)[C@H](Cc1ccccc1)NC(=O)[C@H](CCC(=O)O)NC(=O)[C@H](CCC(=O)O)NC(=O)[C@H](C)NC(=O)[C@H](C)NC(=O)[C@H](CCC(N)=O)NC(=O)[C@H](CCCCNC(=O)[C@@H](N)CCCCNC(=O)[C@@H](N)CCCCNC(=O)CC[C@H](NC(=O)CCCCCCCCCCCCCCCCC(=O)O)C(=O)O)NC(=O)[C@H](CCC(=O)O)NC(=O)[C@H](CC(C)C)NC(=O)[C@H](CC(C)C)NC(=O)[C@@H](NC(=O)[C@H](CO)NC(=O)[C@H](Cc1ccc(O)cc1)NC(=O)[C@H](CC(=O)O)NC(=O)[C@H](CO)NC(=O)[C@@H](NC(=O)[C@H](Cc1ccccc1)NC(=O)[C@@H](NC(=O)CNC(=O)[C@H](CCC(=O)O)NC(=O)C(C)(C)NC(=O)[C@@H](N)Cc1ccc(O)cc1)[C@@H](C)O)[C@@H](C)O)[C@@H](C)CC)C(=O)N[C@@H](CC(N)=O)C(=O)N[C@@H](Cc1c[nH]c2ccccc12)C(=O)N[C@@H](CC(C)C)C(=O)N[C@@H](CC(C)C)C(=O)N[C@@H](C)C(=O)NCC(=O)NCC(=O)N1CCC[C@H]1C(=O)N[C@@H](CO)C(=O)N[C@@H](CO)C(=O)NCC(=O)N[C@@H](C)C(=O)N1CCC[C@H]1C(=O)N1CCC[C@H]1C(=O)N1CCC[C@H]1C(=O)N[C@@H](CO)C(=O)O` [Compound No. 25] (H-Y[Aib]EGTFTSDYSILLEK([εLys-εLys-γGlu-C18 diacid])QAAEEFINWLLAGGPSSGAPPPS-OH), the AUC/Dose stood at 15.2 kg·h/L.

Regarding `CC[C@H](C)[C@H](NC(=O)[C@H](Cc1ccccc1)NC(=O)[C@H](CCC(=O)O)NC(=O)[C@H](CCCNC(=N)N)NC(=O)[C@H](C)NC(=O)[C@H](C)NC(=O)[C@H](CCC(N)=O)NC(=O)[C@H](CCCCNC(=O)COCCOCCNC(=O)COCCOCCNC(=O)CC[C@H](NC(=O)CCCCCCCCCCCCCCCCC(=O)O)C(=O)O)NC(=O)[C@H](CCC(=O)O)NC(=O)[C@H](CC(C)C)NC(=O)[C@H](CC(C)C)NC(=O)[C@@H](NC(=O)[C@H](CO)NC(=O)[C@H](Cc1ccc(O)cc1)NC(=O)[C@H](CC(=O)O)NC(=O)[C@H](CO)NC(=O)[C@@H](NC(=O)[C@H](Cc1ccccc1)NC(=O)[C@@H](NC(=O)CNC(=O)[C@H](CCC(=O)O)NC(=O)C(C)(C)NC(=O)[C@@H](N)Cc1ccc(O)cc1)[C@@H](C)O)[C@@H](C)O)[C@@H](C)CC)C(=O)N[C@@H](CCC(=O)O)C(=O)N[C@@H](Cc1c[nH]c2ccccc12)C(=O)N[C@@H](CC(C)C)C(=O)N[C@@H](CC(C)C)C(=O)N[C@@H](C)C(=O)NCC(=O)NCC(=O)N1CCC[C@H]1C(=O)N[C@@H](CO)C(=O)N[C@@H](CO)C(=O)NCC(=O)N[C@@H](C)C(=O)N1CCC[C@H]1C(=O)N1CCC[C@H]1C(=O)N1CCC[C@H]1C(=O)N[C@@H](CO)C(=O)O` [Compound No. 32] (H-Y[Aib]EGTFTSDYSILLEK([AEEA-AEEA-γGlu-C18 diacid])QAAREFIEWLLAGGPSSGAPPPS-OH; N-terminus assumed), the AUC/Dose is 25.3* kg*h/L.

With `CC[C@H](C)[C@H](NC(=O)[C@H](Cc1ccccc1)NC(=O)[C@H](CCC(=O)O)NC(=O)[C@H](CCCNC(=N)N)NC(=O)[C@H](C)NC(=O)[C@H](C)NC(=O)[C@H](CCC(N)=O)NC(=O)[C@H](CCCCNC(=O)[C@@H](N)CCCCNC(=O)[C@@H](N)CCCCNC(=O)CC[C@H](NC(=O)CCCCCCCCCCCCCCCCC(=O)O)C(=O)O)NC(=O)[C@H](CCC(=O)O)NC(=O)[C@H](CC(C)C)NC(=O)[C@H](CC(C)C)NC(=O)[C@@H](NC(=O)[C@H](CO)NC(=O)[C@H](Cc1ccc(O)cc1)NC(=O)[C@H](CC(=O)O)NC(=O)[C@H](CO)NC(=O)[C@@H](NC(=O)[C@H](Cc1ccccc1)NC(=O)[C@@H](NC(=O)CNC(=O)[C@H](CCC(=O)O)NC(=O)C(C)(C)NC(=O)[C@@H](N)Cc1ccc(O)cc1)[C@@H](C)O)[C@@H](C)O)[C@@H](C)CC)C(=O)N[C@@H](CC(N)=O)C(=O)N[C@@H](Cc1c[nH]c2ccccc12)C(=O)N[C@@H](CC(C)C)C(=O)N[C@@H](CC(C)C)C(=O)N[C@@H](C)C(=O)NCC(=O)NCC(=O)N1CCC[C@H]1C(=O)N[C@@H](CO)C(=O)N[C@@H](CO)C(=O)O` [Compound No. 20] (H-Y[Aib]EGTFTSDYSILLEK([εLys-εLys-γGlu-C18 diacid])QAAREFINWLLAGGPSS-OH; N-terminus assumed), the AUC/Dose came out at 10.8 kg·h/L.
